Source: patent publication US10351915B2 (Berg LLC, priority 2009, dated 2019)

Experiments:
Caspase-3 = test: Western blot of building block components, Caspase-3 expression; format: cell-based
Description: (§1) Skmel-28 melanoma cells were cultured in DMEM/F12 supplemented with 5% Fetal Bovine Serum (FBS) and 1× final concentration of Antibiotics. The cells were grown to 85% confluency and treated with building block components for 3, 6, 12 and 24 hours. The cells were then pelleted and a Western blot analysis was performed.
(§2) In the Western Blot Analysis, the cells were pelleted in cold PBS, lysed, and the protein levels were quantified using a BCA protein assay. The whole cell lysate was loaded in a 4% loading 12% running Tris-HCl gel. The proteins were then transferred to a nitrocellulose paper then blocked with a 5% milk Tris-buffered solution for 1 hour. The proteins were then exposed to primary antibodies (Bcl-2 and Caspase-3) overnight. The nitrocellulose paper was then exposed to Pico Chemilluminescent for 5 min and the protein expression was recorded. After exposure, actin was quantified using the same method. Using ImageJ the levels of protein expression were quantified. A t-Test was used to analyze for statistical significance.

Bcl-2 = test: Western blot of building block components, Bcl-2 expression; format: cell-based
Description: as §1, §2

Melanoma cells = test: Cell proliferation assay (cell count); format: cell-based
Description: The first study examined the effect of combining 4-Hydroxy-Benzoate with Benzoquinone. Cells were incubated for 48 hours, after which a cell count was performed for the live cells. Each test group was compared to the control, and each combination groups were compared to Benzoquinone control. The compounds were statistically analyzed for the addition of Benzoquinone.
Additional studies were performed testing additional molar ratios. For the first test 4-Hydroxybenzoic were tested at concentrations of 500 nM, 1 μM, and 50 μM. These concentrations were tested in combination with 2,3-Dimethoxy-5-methyl-p-benzoquinone (Benzo). The concentration of Benzo tested were 25 μM, 50 μM, and […]. Melanoma cells were grown to 80% confluency and seeded in 6 well plates at a concentration of 40K cells per well. The cells were treated with CoQ10, 4-Hydroxybenzoate, Benzo, and a combination of 4-Hydroxybenzoate/Benzo.
A T-test was performed with p<0.05 as statistically significant.

pancreatic cancer = conditions: 5 mg/kg (Group H), after 28 days
HDFa cells = test: Extracellular acidification rate (ECAR), SeaHorse XF analyzer; format: cell-based, human; conditions: HDFa
Description: (SeaHorse Biosciences Inc, North Billerica, Mass.).
In this experiment, the OCR and extracellular acidification rate (ECAR) in normal cells lines were obtained in the presence and absence of CoQ10 to determine baseline values. It was observed that in its native nutrient environment, the basal OCR rates in normal cells lines are different, and are usually a function of the physiological roles of the cells in the body.
Table 127 below describes the ECAR values (mpH/min) in HDFa cells in the presence or absence of CoQ10 under normoxic and hypoxic conditions at 5.5 mM and 22 mM glucose.

[1] = concentration not given, 24 hours
[2] = all concentrations and time points tested

For `NC(Cc1ccccc1)C(=O)O` (racemic) [DL-Phenylalanine], the Caspase-3 expression (Caspase-3; concentration not given, 3 hours) was “statistically significant increase” and the Bcl-2 expression (Bcl-2; [1]) was “statistically significant decrease”.
With `O=C(O)c1ccc(O)cc1` [4-Hydroxybenzoate, 4-hydroxy-benzoate] the “cell number (live cells) vs control” value (Melanoma cells; 48 hours) was “significant decrease” and the cell proliferation (Melanoma cells; HB 500 nM, 1 μM, 50 μM, p<0.05) was “significant decrease”.
With `CC(=O)SCCNC(=O)CCNC(=O)[C@H](O)C(C)(C)COP(=O)(O)OP(=O)(O)OC[C@H]1O[C@@H](n2cnc3c(N)ncnc32)[C@H](O)[C@@H]1OP(=O)(O)O` [Acetyl-CoA] the Caspase-3 expression (Caspase-3; [2]) was “no significant observed reduction in Bcl-2 or increase in Caspase-3 expression”.
For `CC(=O)NCC(=O)O` [Acetylglycine], the Bcl-2 expression (Bcl-2; 10 μM, 24 hour) was “significant decrease”.
`N[C@H](Cc1ccccc1)C(=O)O` [D-Phenylalanine] was tested, and the Bcl-2 expression (Bcl-2; 10 μM, 6 hours) was “significant reduction”.
For `N[C@H](Cc1ccc(O)cc1)C(=O)O` [D-Tyrosine], the Caspase-3 expression (Caspase-3; 1 μM, 12 hour) was “increase” and the Caspase-3 expression (Caspase-3; 1 μM, 24 hour) was “increase”.
With `COc1cccc2c1C(=O)c1c(O)c3c(c(O)c1C2=O)C[C@@](O)(C(=O)CO)C[C@@H]3O[C@H]1C[C@H](N)[C@H](O)[C@H](C)O1` [Doxorubicin, reference compound] the survival (pancreatic cancer) was “a significant number of the animals in Group H had died”.
For `C[C@@](O)(CCO)CC(=O)O` [Mevalonic Acid, mevalonic acid], the Caspase-3 expression (Caspase-3; [2]) was “no significant reduction in Bcl-2 expression or an increase in Caspase-3 expression”.
In the case of `Cc1ncc(CO)c(CO)c1O` [Pyridoxine, pyridoxine], the Bcl-2 expression (Bcl-2; [1]) is reported as “significant reduction”.
With `COc1cc(C(O)C(=O)O)ccc1O` (stereo not shown) [VMA, 3-methoxy-4-hydroxymandelate] the apoptotic effect (Bcl-2; 100 nM to 100 μM) was “no statistically significant apoptotic effect”.
For `COc1cc(C(=O)O)ccc1O` [Vanillic Acid, vanillic acid], the Bcl-2 expression (Bcl-2; 500 nM, 24 hour) was “significantly reduce”.
With `COC1=C(OC)C(=O)C(C/C=C(\C)CC/C=C(\C)CC/C=C(\C)CC/C=C(\C)CC/C=C(\C)CC/C=C(\C)CC/C=C(\C)CC/C=C(\C)CC/C=C(\C)CCC=C(C)C)=C(C)C1=O` [compound 31510] the ECAR (HDFa cells; Hypoxia (5.5 mM) glucose, 50 μM) was 5 mpH/min, the ECAR (HDFa cells; Hypoxia (5.5 mM) glucose, 100 μM) was 5 mpH/min and the ECAR (HDFa cells; Hypoxia (22 mM) glucose, 50 μM) was 6 mpH/min. It also gave an ECAR (HDFa cells; Hypoxia (22 mM) glucose, 100 μM) of 8 mpH/min, an ECAR (HDFa cells; Normoxia (5.5 mM) glucose, 50 μM) of 6 mpH/min and an ECAR (HDFa cells; Normoxia (5.5 mM) glucose, 100 μM) of 6 mpH/min. The ECAR (HDFa cells; Normoxia (22 mM) glucose, 50 μM) was 5 mpH/min and the ECAR (HDFa cells; Normoxia (22 mM) glucose, 100 μM) was 5 mpH/min.
